Assay results published in ChEMBL document CHEMBL3885861, “Open TG-GATES”.

Organism: Rattus norvegicus
Test: Open TG-GATES - Regimen: Daily Repeat
Assay type: toxicity, organism-based, Sprague-Dawley
Parameters: regimen Daily Repeat, gender Male, age 6 weeks
Details: in vivo, po, route gavage; for APTT / Bas / Eos / Fbg / Hb / Ht / Lym / MCH / MCHC / MCV / Mono / Neu / PT / Plat / RBC / Ret / WBC: tissue Blood; for KIDNEY_L / KIDNEY_R / KIDNEY_TOTAL: tissue Kidney; for LIVER: tissue Liver; for A/G / ALP / ALT / AST / BUN / CRE / Ca / Cl / DBIL / GLC / IP / K / LDH / Na / PL / RALB / TBIL / TC / TG / TP / gamma-GTP: tissue Plasma
[1] = 0 mg/kg, 72 h, dose level Control, time 3 day
[2] = 0 mg/kg, […], dose level Control, time 7 day
[3] = 0 mg/kg, […], dose level Control, time 14 day
[4] = 0 mg/kg, […], dose level Control, time 28 day
[5] = 50 mg/kg, 72 h, dose level Low, time 3 day
[6] = 50 mg/kg, […], dose level Low, time 7 day
[7] = 50 mg/kg, […], dose level Low, time 14 day
[8] = 50 mg/kg, […], dose level Low, time 28 day

## NNC(=O)c1ccncc1 [ISONIAZID]
[1]
  TERMINAL_BW: 219.4 g
  APTT: 14.3 s
  Bas: 0.2%
  Eos: 2%
  Fbg: 229.4 mg/dL
  Hb: 13.6 g/dL
  Ht: 40.8%
  Lym: 74%
  MCH: 21.7 pg
  MCHC: 33.2%
  MCV: 65.2 fL
  Mono: 8.8%
  Neu: 15.6%
  PT: 12.1 s
  Plat: 120.9 x10_4/uL
  RBC: 626.2 x10_4/ul
  Ret: 8.2%
  WBC: 101.8 x10_2/uL
  KIDNEY_L: 0.9 g
  KIDNEY_R: 1 g
  KIDNEY_TOTAL: 1.9 g
  LIVER: 11.3 g
  A/G: 1.8
  ALP: 836.8 IU/L
  ALT: 33.6 IU/L
  AST: 61.8 IU/L
  BUN: 19 mg/dL
  CRE: 0.5 mg/dL
  Ca: 10.8 mg/dL
  Cl: 103.8 meq/L
  DBIL: 0.068 mg/dL
  GLC: 209.2 mg/dL
  IP: 7.6 mg/dL
  K: 5.1 meq/L
  LDH: 102 IU/L
  Na: 139.4 meq/L
  PL: 163.4 mg/dL
  RALB: 3.8 g/dL
  TBIL: 0.3 mg/dL
  TC: 85.8 mg/dL
  TG: 110.2 mg/dL
  TP: 6 g/dL
  gamma-GTP: 1.6 IU/L
[2]
  TERMINAL_BW: 251.9 g
  APTT: 14.6 s
  Bas: 0%
  Eos: 1%
  Fbg: 235 mg/dL
  Hb: 13.8 g/dL
  Ht: 41.5%
  Lym: 76.8%
  MCH: 21.4 pg
  MCHC: 33.4%
  MCV: 64.2 fL
  Mono: 10.2%
  Neu: 11.6%
  PT: 12 s
  Plat: 127.4 x10_4/uL
  RBC: 646.4 x10_4/ul
  Ret: 6%
  WBC: 108.1 x10_2/uL
  KIDNEY_L: 1.1 g
  KIDNEY_R: 1.1 g
  KIDNEY_TOTAL: 2.2 g
  LIVER: 12.3 g
  A/G: 1.7
  ALP: 884.4 IU/L
  ALT: 33 IU/L
  AST: 56.6 IU/L
  BUN: 19.6 mg/dL
  CRE: 0.5 mg/dL
  Ca: 10.6 mg/dL
  Cl: 105 meq/L
  DBIL: 0.074 mg/dL
  GLC: 223.8 mg/dL
  IP: 8.4 mg/dL
  K: 5 meq/L
  LDH: 115.2 IU/L
  Na: 140.4 meq/L
  PL: 163 mg/dL
  RALB: 3.7 g/dL
  TBIL: 0.3 mg/dL
  TC: 81.6 mg/dL
  TG: 130.2 mg/dL
  TP: 5.9 g/dL
  gamma-GTP: 1.2 IU/L
[3]
  TERMINAL_BW: 294 g
  APTT: 16.1 s
  Bas: 0%
  Eos: 1.2%
  Fbg: 224.2 mg/dL
  Hb: 15.1 g/dL
  Ht: 44.9%
  Lym: 78.2%
  MCH: 20.3 pg
  MCHC: 33.5%
  MCV: 60.6 fL
  Mono: 5.5%
  Neu: 14.8%
  PT: 11.8 s
  Plat: 114.6 x10_4/uL
  RBC: 740.8 x10_4/ul
  Ret: 3.9%
  WBC: 109.8 x10_2/uL
  KIDNEY_L: 1.1 g
  KIDNEY_R: 1.1 g
  KIDNEY_TOTAL: 2.2 g
  LIVER: 13.3 g
  A/G: 1.6
  ALP: 783.8 IU/L
  ALT: 29.6 IU/L
  AST: 62 IU/L
  BUN: 19.2 mg/dL
  CRE: 0.6 mg/dL
  Ca: 10.4 mg/dL
  Cl: 106.8 meq/L
  DBIL: 0.002 mg/dL
  GLC: 213.2 mg/dL
  IP: 7.9 mg/dL
  K: 5.1 meq/L
  LDH: 160 IU/L
  Na: 139.4 meq/L
  PL: 151 mg/dL
  RALB: 3.6 g/dL
  TBIL: 0.3 mg/dL
  TC: 76.4 mg/dL
  TG: 144 mg/dL
  TP: 5.9 g/dL
  gamma-GTP: 0.4 IU/L
[4]
  TERMINAL_BW: 374.9 g
  APTT: 15.9 s
  Bas: 0%
  Eos: 1.2%
  Fbg: 227.4 mg/dL
  Hb: 15.5 g/dL
  Ht: 46%
  Lym: 85.8%
  MCH: 19.7 pg
  MCHC: 33.8%
  MCV: 58.2 fL
  Mono: 3.2%
  Neu: 9.2%
  PT: 12 s
  Plat: 106.3 x10_4/uL
  RBC: 790.6 x10_4/ul
  Ret: 2.5%
  WBC: 140.8 x10_2/uL
  KIDNEY_L: 1.3 g
  KIDNEY_R: 1.3 g
  KIDNEY_TOTAL: 2.6 g
  LIVER: 15.5 g
  A/G: 1.4
  ALP: 751.6 IU/L
  ALT: 26.8 IU/L
  AST: 56.4 IU/L
  BUN: 19.4 mg/dL
  CRE: 0.5 mg/dL
  Ca: 10 mg/dL
  Cl: 104.6 meq/L
  DBIL: 0.06 mg/dL
  GLC: 208.8 mg/dL
  IP: 7.2 mg/dL
  K: 4.4 meq/L
  LDH: 73.4 IU/L
  Na: 142.2 meq/L
  PL: 141.8 mg/dL
  RALB: 3.6 g/dL
  TBIL: 0.2 mg/dL
  TC: 70.6 mg/dL
  TG: 125.6 mg/dL
  TP: 6.2 g/dL
  gamma-GTP: 1.4 IU/L
[5]
  TERMINAL_BW: 220.3 g
  APTT: 14.6 s
  Bas: 0%
  Eos: 1.2%
  Fbg: 242.2 mg/dL
  Hb: 13.6 g/dL
  Ht: 40.6%
  Lym: 73.4%
  MCH: 21.8 pg
  MCHC: 33.4%
  MCV: 65.3 fL
  Mono: 11.8%
  Neu: 13.8%
  PT: 12 s
  Plat: 113 x10_4/uL
  RBC: 622.8 x10_4/ul
  Ret: 7.5%
  WBC: 85.3 x10_2/uL
  KIDNEY_L: 1 g
  KIDNEY_R: 1 g
  KIDNEY_TOTAL: 2 g
  LIVER: 11.3 g
  A/G: 1.8
  ALP: 862.8 IU/L
  ALT: 23.2 IU/L
  AST: 57 IU/L
  BUN: 16.6 mg/dL
  CRE: 0.5 mg/dL
  Ca: 10.7 mg/dL
  Cl: 104.6 meq/L
  DBIL: 0.008 mg/dL
  GLC: 225.2 mg/dL
  IP: 8.3 mg/dL
  K: 4.8 meq/L
  LDH: 108.6 IU/L
  Na: 140.2 meq/L
  PL: 145.4 mg/dL
  RALB: 3.8 g/dL
  TBIL: 0.3 mg/dL
  TC: 79.2 mg/dL
  TG: 98 mg/dL
  TP: 5.9 g/dL
  gamma-GTP: 1 IU/L
[6]
  TERMINAL_BW: 247.3 g
  APTT: 15.7 s
  Bas: 0%
  Eos: 1%
  Fbg: 230.4 mg/dL
  Hb: 13.8 g/dL
  Ht: 41.1%
  Lym: 80.8%
  MCH: 20.9 pg
  MCHC: 33.5%
  MCV: 62.3 fL
  Mono: 6.8%
  Neu: 11.2%
  PT: 12.1 s
  Plat: 125.4 x10_4/uL
  RBC: 661.6 x10_4/ul
  Ret: 6.1%
  WBC: 118.4 x10_2/uL
  KIDNEY_L: 1.1 g
  KIDNEY_R: 1.1 g
  KIDNEY_TOTAL: 2.2 g
  LIVER: 12 g
  A/G: 1.5
  ALP: 797.6 IU/L
  ALT: 20.6 IU/L
  AST: 60.6 IU/L
  BUN: 18.4 mg/dL
  CRE: 0.5 mg/dL
  Ca: 10.5 mg/dL
  Cl: 105.6 meq/L
  DBIL: 0.08 mg/dL
  GLC: 227.2 mg/dL
  IP: 8.2 mg/dL
  K: 5 meq/L
  LDH: 113 IU/L
  Na: 139 meq/L
  PL: 147 mg/dL
  RALB: 3.6 g/dL
  TBIL: 0.3 mg/dL
  TC: 73.2 mg/dL
  TG: 100.4 mg/dL
  TP: 6.1 g/dL
  gamma-GTP: 1 IU/L
[7]
  TERMINAL_BW: 307.2 g
  APTT: 15.7 s
  Bas: 0%
  Eos: 1%
  Fbg: 227.8 mg/dL
  Hb: 14 g/dL
  Ht: 41.8%
  Lym: 79%
  MCH: 20.1 pg
  MCHC: 33.5%
  MCV: 60.1 fL
  Mono: 7.4%
  Neu: 12.8%
  PT: 12 s
  Plat: 118.6 x10_4/uL
  RBC: 697.4 x10_4/ul
  Ret: 5.1%
  WBC: 137 x10_2/uL
  KIDNEY_L: 1.2 g
  KIDNEY_R: 1.3 g
  KIDNEY_TOTAL: 2.5 g
  LIVER: 14.1 g
  A/G: 1.6
  ALP: 683 IU/L
  ALT: 19 IU/L
  AST: 58.2 IU/L
  BUN: 16 mg/dL
  CRE: 0.6 mg/dL
  Ca: 10.5 mg/dL
  Cl: 105.8 meq/L
  DBIL: 0 mg/dL
  GLC: 203 mg/dL
  IP: 8.1 mg/dL
  K: 5.1 meq/L
  LDH: 101.6 IU/L
  Na: 138.2 meq/L
  PL: 138.6 mg/dL
  RALB: 3.7 g/dL
  TBIL: 0.3 mg/dL
  TC: 68.8 mg/dL
  TG: 119.2 mg/dL
  TP: 6 g/dL
  gamma-GTP: 0.4 IU/L
[8]
  TERMINAL_BW: 372.9 g
  APTT: 15.6 s
  Bas: 0%
  Eos: 1%
  Fbg: 227.4 mg/dL
  Hb: 14.7 g/dL
  Ht: 44.2%
  Lym: 86.2%
  MCH: 19.1 pg
  MCHC: 33.4%
  MCV: 57.3 fL
  Mono: 2.8%
  Neu: 10%
  PT: 12 s
  Plat: 102.2 x10_4/uL
  RBC: 771.2 x10_4/ul
  Ret: 3%
  WBC: 149.4 x10_2/uL
  KIDNEY_L: 1.4 g
  KIDNEY_R: 1.3 g
  KIDNEY_TOTAL: 2.7 g
  LIVER: 15.1 g
  A/G: 1.4
  ALP: 560.2 IU/L
  ALT: 14.2 IU/L
  AST: 55.2 IU/L
  BUN: 20.4 mg/dL
  CRE: 0.6 mg/dL
  Ca: 10.1 mg/dL
  Cl: 104.8 meq/L
  DBIL: 0.042 mg/dL
  GLC: 208.6 mg/dL
  IP: 7.3 mg/dL
  K: 4.5 meq/L
  LDH: 87.4 IU/L
  Na: 141.4 meq/L
  PL: 138.6 mg/dL
  RALB: 3.6 g/dL
  TBIL: 0.2 mg/dL
  TC: 66.4 mg/dL
  TG: 131.2 mg/dL
  TP: 6.1 g/dL
  gamma-GTP: 1.4 IU/L
